Measured values taken from the NIST ThermoML archive (doi:10.1016/j.jct.2019.01.007).
“And” between values parts separate entries of the source, which are not always exact repeats. Equal values may be shown once.

Details: Liquid

CCCCCCCCCCCCCCCC(=O)OC [methyl hexadecanoate]
Details | vapor or sublimation pressure
308.12 K | 2.814e-05 kPa
312 K | 4.574e-05 kPa
312.96 K | 5.318e-05 kPa
312.97 K | 4.817e-05 kPa
314.42 K | 5.995e-05 kPa
315.4 K | 6.903e-05 kPa
316.85 K | 7.591e-05 kPa
317.81 K | 8.232e-05 kPa
317.82 K | 8.757e-05 kPa
319.27 K | 0.0001 kPa
320.26 K | 0.0001123 kPa
321.71 K | 0.0001276 kPa
322.66 K | 0.0001426 kPa
322.67 K | 0.000144 kPa
324.12 K | 0.0001655 kPa
325.11 K | 0.0001853 kPa
326.56 K | 0.0002146 kPa
327.52 K | 0.0002379 kPa and 0.0002346 kPa
328.98 K | 0.0002676 kPa
329.96 K | 0.0002973 kPa
331.42 K | 0.0003403 kPa
332.37 K | 0.0003763 kPa and 0.000377 kPa
333.83 K | 0.000429 kPa
334.83 K | 0.0004701 kPa
336.28 K | 0.0005477 kPa
337.23 K | 0.0006044 kPa and 0.0005995 kPa
338.69 K | 0.0006834 kPa
339.69 K | 0.0007518 kPa
341.14 K | 0.0008558 kPa
342.09 K | 0.0009461 kPa and 0.0009339 kPa
343.55 K | 0.00107 kPa
344.55 K | 0.001176 kPa
345.01 K | 0.001226 kPa
346 K | 0.001334 kPa
346.95 K | 0.001462 kPa and 0.001463 kPa
348.41 K | 0.001655 kPa
349.41 K | 0.001817 kPa
349.87 K | 0.001888 kPa
350.86 K | 0.002055 kPa
351.82 K | 0.002257 kPa
353.27 K | 0.002528 kPa
354.29 K | 0.002774 kPa
354.73 K | 0.002884 kPa
355.73 K | 0.003112 kPa
356.67 K | 0.003414 kPa
358.13 K | 0.003814 kPa
359.16 K | 0.004171 kPa
359.59 K | 0.004332 kPa
359.63 K | 0.004286 kPa
360.59 K | 0.004673 kPa
361.55 K | 0.005107 kPa
363 K | 0.00565 kPa
364.02 K | 0.006171 kPa
364.45 K | 0.006382 kPa
364.49 K | 0.006315 kPa
365.45 K | 0.006842 kPa
366.41 K | 0.00747 kPa
367.87 K | 0.008233 kPa
368.87 K | 0.008934 kPa
369.32 K | 0.009208 kPa
371.29 K | 0.01071 kPa
371.74 K | 0.01102 kPa
372.64 K | 0.01169 kPa
372.73 K | 0.01183 kPa
375.03 K | 0.0139 kPa
377.49 K | 0.0166 kPa
379.9 K | 0.01941 kPa
382.34 K | 0.02319 kPa
384.76 K | 0.02705 kPa
387.21 K | 0.03214 kPa
389.66 K | 0.03772 kPa
392.06 K | 0.04434 kPa
394.52 K | 0.05191 kPa
396.92 K | 0.06045 kPa
399.39 K | 0.07078 kPa
401.78 K | 0.08154 kPa
404.23 K | 0.09507 kPa
406.65 K | 0.1092 kPa
409.09 K | 0.1267 kPa
411.5 K | 0.1469 kPa
411.52 K | 0.1459 kPa
416.35 K | 0.1929 kPa
421.21 K | 0.2522 kPa
426.08 K | 0.3266 kPa
428.52 K | 0.37 kPa
430.94 K | 0.4193 kPa

CCCCCCCCCCCCCCCCCC(=O)OC [methyl octadecanoate]
Details | vapor or sublimation pressure
323.15 K | 1.964e-05 kPa
325.63 K | 2.609e-05 kPa
329.6 K | 4.071e-05 kPa
330.56 K | 4.58e-05 kPa
332.04 K | 5.362e-05 kPa
333.07 K | 6.007e-05 kPa
334.55 K | 6.999e-05 kPa
335.51 K | 7.764e-05 kPa
336.99 K | 9.04e-05 kPa
338.02 K | 0.0001008 kPa
339.5 K | 0.0001184 kPa
340.47 K | 0.0001287 kPa
340.98 K | 0.0001351 kPa
341.1 K | 0.0001377 kPa
341.96 K | 0.0001499 kPa
342.97 K | 0.0001648 kPa
343.46 K | 0.0001744 kPa
343.47 K | 0.0001739 kPa
343.6 K | 0.0001774 kPa
344.44 K | 0.0001914 kPa
345.44 K | 0.0002122 kPa
345.93 K | 0.0002228 kPa and 0.0002233 kPa
348.42 K | 0.0002848 kPa
348.57 K | 0.0002879 kPa
350.9 K | 0.0003613 kPa
355.89 K | 0.0005743 kPa
358.52 K | 0.0007236 kPa
360.89 K | 0.0008965 kPa
363.49 K | 0.001127 kPa
363.98 K | 0.00118 kPa
365.92 K | 0.001386 kPa
366.47 K | 0.00146 kPa
368.46 K | 0.001721 kPa
368.97 K | 0.001804 kPa
370.93 K | 0.002113 kPa
371.46 K | 0.002216 kPa
373.44 K | 0.002588 kPa
373.95 K | 0.00271 kPa
373.96 K | 0.002713 kPa
375.45 K | 0.003046 kPa
375.93 K | 0.003163 kPa
376.44 K | 0.003286 kPa
377.44 K | 0.003573 kPa
380.44 K | 0.004514 kPa and 0.0045 kPa
381.43 K | 0.004848 kPa
381.44 K | 0.004888 kPa and 0.0049 kPa
382.43 K | 0.005241 kPa
383.93 K | 0.005905 kPa
383.94 K | 0.0059 kPa
385.43 K | 0.006597 kPa and 0.006574 kPa
386.43 K | 0.007091 kPa and 0.007085 kPa
388.93 K | 0.00852 kPa
391.41 K | 0.01021 kPa
393.92 K | 0.0122 kPa
396.39 K | 0.01443 kPa
398.9 K | 0.01726 kPa
401.38 K | 0.0202 kPa
403.89 K | 0.02406 kPa
406.38 K | 0.0282 kPa
408.88 K | 0.03336 kPa

Transpiration method
Details | vapor or sublimation pressure [kPa]
369.05 K | 0.00176
371.15 K | 0.00202
375.1 K | 0.0027
377.05 K | 0.00323
380.05 K | 0.00389
383.15 K | 0.00494
387.15 K | 0.00636
390.35 K | 0.00731
393.15 K | 0.00901
397.5 K | 0.013
399.45 K | 0.0149
400.35 K | 0.0159
401.35 K | 0.0166
405.2 K | 0.0225
405.6 K | 0.0231
408.4 K | 0.0279
410.25 K | 0.0322
411.15 K | 0.0339
412.3 K | 0.036
415.2 K | 0.0433
416.35 K | 0.0424
419.25 K | 0.052
420.15 K | 0.0563
423.1 K | 0.0664
425.15 K | 0.0804
